Reference: patent US12180194B2, “Multi-aziridine compound” (Covestro (Netherlands) B.V., priority 2018, dated 2024)

Assays:
Bscl2-GFP = test: ToxTracker genotoxicity assay, Bscl2-GFP reporter induction
Rtkn-GFP = test: ToxTracker genotoxicity assay, Rtkn-GFP reporter induction
[1] = GFP induction vs vehicle at 10% cytotoxicity, 3 h exposure with S9, 24 h recovery
[2] = GFP induction vs vehicle at 10% cytotoxicity, 24 h exposure, no S9
[3] = GFP induction vs vehicle at 25% cytotoxicity, 3 h exposure with S9, 24 h recovery
[4] = GFP induction vs vehicle at 25% cytotoxicity, 24 h exposure, no S9
[5] = GFP induction vs vehicle at 50% cytotoxicity, 3 h exposure with S9, 24 h recovery
[6] = GFP induction vs vehicle at 50% cytotoxicity, 24 h exposure, no S9

CCCCCCCCCC(=O)OCC(CN1CC1C)OC(=O)NC1CCC(CC2CCC(NC(=O)OC(COC(=O)CCCCCCCCC)CN3CC3C)CC2)CC1 (stereo not drawn) [Ex. 23]
Genotoxicity test, With S9 rat liver extract, Bscl 2, 10 (Bscl2-GFP; [1]): 1.1 fold
Genotoxicity test, Without S9 rat liver extract, Bscl 2, 10 (Bscl2-GFP; [2]): 1.1 fold
Genotoxicity test, With S9 rat liver extract, Bscl 2, 25 (Bscl2-GFP; [3]): 1.1 fold
Genotoxicity test, Without S9 rat liver extract, Bscl 2, 25 (Bscl2-GFP; [4]): 1.2 fold
Genotoxicity test, With S9 rat liver extract, Bscl 2, 50 (Bscl2-GFP; [5]): 1.1 fold
Genotoxicity test, Without S9 rat liver extract, Bscl 2, 50 (Bscl2-GFP; [6]): 1.2 fold
Genotoxicity test, With S9 rat liver extract, Rtkn, 10 (Rtkn-GFP; [1]): 1.0 fold
Genotoxicity test, Without S9 rat liver extract, Rtkn, 10 (Rtkn-GFP; [2]): 1.1 fold
Genotoxicity test, With S9 rat liver extract, Rtkn, 25 (Rtkn-GFP; [3]): 1.2 fold
Genotoxicity test, Without S9 rat liver extract, Rtkn, 25 (Rtkn-GFP; [4]): 1.2 fold
Genotoxicity test, With S9 rat liver extract, Rtkn, 50 (Rtkn-GFP; [5]): 1.2 fold
Genotoxicity test, Without S9 rat liver extract, Rtkn, 50 (Rtkn-GFP; [6]): 1.1 fold
